These results are taken from paper PMC9603476, “Desaturation of the Sphingofungin Polyketide Tail Results in Increased Serine Palmitoyltransferase Inhibition” (Microbiology Spectrum, 2022).

Structures are written as SMILES.

This experiment addresses T1, SPT (serine palmitoyltransferase) (Sphingomonas paucimobilis, UniProt Q93UV0).
T1 construct: soluble homodimer
In words: HPLC-HRMS of 3-ketodihydrosphingosine; coupled PPi assay. The conditions noted are these: pH 7.5, 37°C. It counts as biochemical.

T1 sequence (Q93UV0 whole entry): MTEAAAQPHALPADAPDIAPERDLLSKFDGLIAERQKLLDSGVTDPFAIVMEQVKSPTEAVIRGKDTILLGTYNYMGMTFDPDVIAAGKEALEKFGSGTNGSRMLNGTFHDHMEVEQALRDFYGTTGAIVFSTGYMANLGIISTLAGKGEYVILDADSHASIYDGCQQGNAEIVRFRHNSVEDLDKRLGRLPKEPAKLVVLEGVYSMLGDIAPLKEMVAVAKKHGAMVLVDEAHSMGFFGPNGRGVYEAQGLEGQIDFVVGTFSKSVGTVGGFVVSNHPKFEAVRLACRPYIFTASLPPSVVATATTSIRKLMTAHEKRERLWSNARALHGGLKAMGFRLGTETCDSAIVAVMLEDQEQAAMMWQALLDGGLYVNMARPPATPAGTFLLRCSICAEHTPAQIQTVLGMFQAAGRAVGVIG

In the case of `CCCCCCCCCCCCCCCC(=O)SCCNC(=O)CCNC(=O)[C@H](O)C(C)(C)COP(=O)(O)OP(=O)(O)OC[C@H]1O[C@@H](n2cnc3c(N)ncnc32)[C@H](O)[C@@H]1OP(=O)(O)O` [palmitoyl-CoA], where the note is “5 mM serine, palmitoyl-CoA regenerated by FadD”, the “HPLC-HRMS of 3-ketodihydrosphingosine; coupled PPi assay” value is reported as “we verified the production of 3-ketodihydrosphingosine by our SPT reaction”.
Take `N[C@@H](CO)C(=O)O` [serine]: the “HPLC-HRMS of 3-ketodihydrosphingosine; coupled PPi assay” value (with palmitoyl-CoA regenerated by FadD, serine concentration varied) is on record as “we verified the production of 3-ketodihydrosphingosine by our SPT reaction”.
